Reference: ChEMBL document CHEMBL3046457, “Chemical characterization of the aphid antifeedant extracts from Dittrichia viscosa and Ferula communis” (2012)

Key:
Format in all cases: functional
Myzus persicae [1] = test: Insecticidal activity against Myzus persicae (green peach aphid) in compound treated leaf disk assessed as settling inhibition on leaf disk at 50 ug/cm'2 relative to control
Myzus persicae [2] = test: Insecticidal activity against Myzus persicae (green peach aphid) in compound treated leaf disk assessed as settled on leaf disk at 10 ug/cm'2 relative to control (reference value: 39 +/- 6 to 98 +/- 1%)
Myzus persicae [3] = test: Insecticidal activity against Myzus persicae (green peach aphid) in compound treated leaf disk assessed as settled on leaf disk at 100 ug/cm'2 relative to control (reference value: 39 +/- 6 to 98 +/- 1%)
Myzus persicae [4] = test: Insecticidal activity against Myzus persicae (green peach aphid) in compound treated leaf disk assessed as settling inhibition on leaf disk at 10 ug/cm'2 relative to control
Myzus persicae [5] = test: Insecticidal activity against Myzus persicae (green peach aphid) in compound treated leaf disk assessed as settled on leaf disk at 50 ug/cm'2 relative to control (reference value: 39 +/- 6 to 98 +/- 1%)
Myzus persicae [6] = test: Insecticidal activity against Myzus persicae (green peach aphid) in compound treated leaf disk assessed as settling inhibition on leaf disk at 100 ug/cm'2 relative to control
Myzus persicae [7] = test: Insecticidal activity against Myzus persicae (green peach aphid) in compound treated leaf disk assessed as settled on leaf disk

Structure (SMILES): CC(C)=CCC/C(C)=C/CC/C(C)=C/Cc1c(O)c2ccccc2oc1=O
- inhibition (INH) (Myzus persicae [1]): 71%
- inhibition (INH) (Myzus persicae [2]): 28%
- inhibition (INH) (Myzus persicae [3]): 26%
- inhibition (INH) (Myzus persicae [4]): 63%
- inhibition (INH) (Myzus persicae [5]): 20%
- inhibition (INH) (Myzus persicae [6]): 62%

Structure (SMILES): C=C1C(=O)O[C@H]2CC(=C)[C@H]3CC[C@@](C)(O)[C@@H]3C[C@H]12 [INUVISCOLIDE]
- inhibition (INH) (Myzus persicae [1]): 50%
- inhibition (INH) (Myzus persicae [2]): 43%
- inhibition (INH) (Myzus persicae [3]): 31%
- inhibition (INH) (Myzus persicae [4]): 38%
- inhibition (INH) (Myzus persicae [5]): 39%
- inhibition (INH) (Myzus persicae [6]): 56%

Structure (SMILES): C=C1C(=O)O[C@@H]2C[C@H](C)C(CCC(C)=O)=CC[C@H]12 [TOMENTOSIN]
- inhibition (INH) (Myzus persicae [1]): 48%
- inhibition (INH) (Myzus persicae [2]): 61%
- ED50 (Myzus persicae [7]): 31.9 microg/cm2
- inhibition (INH) (Myzus persicae [3]): 2%
- inhibition (INH) (Myzus persicae [4]): 19%
- inhibition (INH) (Myzus persicae [5]): 35%
- inhibition (INH) (Myzus persicae [6]): 98%
